From PMC8875508, “Cytotoxic Phenylpropanoid Derivatives and Alkaloids from the Flowers of Pancratium maritimum L” (Plants, 2022)

How the values were obtained:
Format in all cases: cell-based
MDA-MB-231 cells = test: MTT antiproliferative assay, MDA-MB-231; conditions: Homo sapiens, 72 h, mean of three independent experiments, cutoff 10 µM, read-out: IC50 (Mean + SEM)
Method: (§1) HCT116 (Colorectal carcinoma, ATCC CCL-247) and HeLa (human cervical carcinoma, ATCC CCL-2) cells were cultured in RPMI 1640 medium with 10% FBS, and 1% penicillin–streptomycin, while MDA-MB-231 cells (triple-negative breast cancer, ATCC HTB-26) were cultured in DMEM medium with 1% penicillin–streptomycin and 10% FBS.
(§2) The evaluation of the antiproliferative effects compounds 1–7 were performed using MTT assay, as reported earlier. In short, the cells were incubated at 37 °C overnight in 5% CO2/air. After that, the compounds were added at the top row of a 96-well microtiter plate; a descendant serial dilution (1:4) of the concentration was performed followed by incubation of the cells with the compounds for 72 h. Using the Cell Titer 96 AQueous non-radioactive cell proliferation protocol, the cell viability was estimated at 490 nm on a Molecular Devices Emax microplate reader. The IC50 values of the compounds (expressed in μM) were evaluated using the program SoftMax Pro. A concentration of 10 µM was set as a cutoff value in this assay.

HeLa cells = test: MTT antiproliferative assay, HeLa; conditions: Homo sapiens, 72 h, mean of three independent experiments, cutoff 10 µM, read-out: IC50 (Mean + SEM)
Method: as §1, §2

HCT 116 cells = test: MTT antiproliferative assay, HCT 116; conditions: Homo sapiens, 72 h, mean of three independent experiments, cutoff 10 µM, read-out: IC50 (Mean + SEM)
Method: as §1, §2

[1] = tested on: normal human dermal fibroblasts (NHDF); test: MTT assay, normal human dermal fibroblasts
Method: The normal human dermal fibroblasts (NHDF) cells were cultured in fibroblast basal medium complemented with penicillin–streptomycin (1% v/v), insulin (5 µg/mL), heat-inactivated fetal bovine serum (FBS) (2% v/v), and basic fibroblast growth factor (1 ng/mL).
as §2

[2] = tested on: HCT116, HeLa, and MDA-MB-231 cell lines; test: MTT assay, average over the cancerous cell lines; conditions: Homo sapiens; average of HCT116, HeLa and MDA-MB-231; read-out: average IC50 against the cancerous cell lines
Method: as §1, §2

SMILES | IC50 (MDA-MB-231 cells) [µM] | IC50 (HeLa cells) [µM] | IC50 (HCT 116 cells) [µM] | IC50 ([1]; Homo sapiens, NHDF, MTT, 72 h, mean of three independent experiments, read-out: IC50 (Mean + SEM)) [µM] | selectivity towards the tested cancer cell lines versus NHDF ([1]; NHDF IC50 6.6 µM versus average IC50 0.099 µM of the cancer cell lines) [fold] | IC50 [2] [nM]
COc1ccc(CCCO[C@@H]2O[C@H](CO)[C@@H](O)[C@H](O)[C@H]2O)cc1 [Compound 3, 3-(4-methoxyphenyl)propan-1-ol-1-O-β-D-glucopyranoside] | ≥ 10 | ≥ 10 | ≥ 10 | – | – | –
O=C(O)/C=C/c1ccc(O)c(O)c1 [Compound 5, caffeic acid] | ≥ 10 | ≥ 10 | ≥ 10 | – | – | –
O=C1N[C@H]2[C@H](O)[C@H](O)[C@@H](O)[C@H](O)[C@@H]2c2cc3c(c(O)c21)OCO3 [Compound 7, pancratistatin] | 0.14 ± 0.002 | 0.058 ± 0.001 | 0.1 ± 0.005 | 6.6 ± 0.034 | 66 | 99

More lines, main results first:

IC50 (MDA-MB-231 cells) [µM] | IC50 (HeLa cells) [µM] | IC50 (HCT 116 cells) [µM] | SMILES | IC50 ([1]; Homo sapiens, NHDF, MTT, 72 h, mean of three independent experiments, read-out: IC50 (Mean + SEM)) [µM] | selectivity towards the tested cancer cell lines versus NHDF ([1]; NHDF IC50 6.6 µM versus average IC50 0.099 µM of the cancer cell lines) [fold] | IC50 [2] [nM]
≥ 10 | ≥ 10 | ≥ 10 | COC(=O)/C=C\c1ccc(O[C@@H]2O[C@H](CO)[C@@H](O)[C@H](O)[C@H]2O)cc1 [Compound 1, 3-[4-(β-D-glucopyranosyloxy)phenyl]-2-(Z)-propenoic acid methyl ester] | – | – | –
≥ 10 | ≥ 10 | ≥ 10 | COC(=O)c1ccc(O[C@@H]2O[C@H](CO)[C@@H](O)[C@H](O)[C@H]2O)c(OC)c1 [Compound 2, 3-methoxy-4-(β-D-glucopyranosyloxy)benzoic acid methyl ester] | – | – | –
13 ± 0.3 | 12.3 ± 0.25 | 4.6 ± 0.23 | O=c1[nH]cc(F)c(=O)[nH]1 [Compound 5-FU, 5-Fluorouracil, reference compound] | – | – | –
